Test results: ChEMBL document CHEMBL3576846, “Privileged Structures Meet Human T-Cell Leukemia Virus-1 (HTLV-1): C2-Symmetric 3,4-Disubstituted Pyrrolidines as Nonpeptidic HTLV-1 Protease Inhibitors” (J Med Chem, 2015)

experiment: Inhibition of HTLV-1 protease using (RE(Edans)TKVLVVQPK(Dabsyl)R) as substrate by fluorescence assay; parameters: species or system Human T-cell leukemia virus type I

`O=S(=O)(c1ccccc1Cl)N(Cc1ccccc1)[C@H]1CNC[C@@H]1N(Cc1ccccc1)S(=O)(=O)c1ccccc1Cl` and `Cc1ccccc1S(=O)(=O)N(Cc1ccccc1)[C@H]1CNC[C@@H]1N(Cc1ccccc1)S(=O)(=O)c1ccccc1C` are within 1.5-fold of each other in Ki: 2.4 µM for the first, 2.6 µM for the second.

First: O=S(=O)(c1ccccc1)N(Cc1ccccc1)[C@H]1CNC[C@@H]1N(Cc1ccccc1)S(=O)(=O)c1ccccc1
Second: O=S(=O)(c1ccccc1)N(Cc1ccc(I)cc1)[C@H]1CNC[C@@H]1N(Cc1ccc(I)cc1)S(=O)(=O)c1ccccc1
The Ki of the first is lower: 2 µM for the first, > 200 µM for the second. The first binds more tightly here.

Going from `O=S(=O)(c1ccccc1)N(Cc1ccc(C(F)(F)F)cc1)[C@H]1CNC[C@@H]1N(Cc1ccc(C(F)(F)F)cc1)S(=O)(=O)c1ccccc1` to `Nc1ccc(S(=O)(=O)N(Cc2ccccc2)[C@H]2CNC[C@@H]2N(Cc2ccccc2)S(=O)(=O)c2ccc(N)cc2)cc1`, the Ki falls from > 250 µM to 0.015 µM.

Going from `CC(C)=CCN([C@H]1CNC[C@@H]1N(CC=C(C)C)S(=O)(=O)c1ccccc1)S(=O)(=O)c1ccccc1` to `C=C(C)CN([C@H]1CNC[C@@H]1N(CC(=C)C)S(=O)(=O)c1ccccc1)S(=O)(=O)c1ccccc1`, the Ki rises from 11.6 µM to 17.8 µM (1.5-fold).

First: C=CCN([C@H]1CNC[C@@H]1N(CC=C)S(=O)(=O)c1ccccc1)S(=O)(=O)c1ccccc1
Second: O=[N+]([O-])c1ccc(S(=O)(=O)N(Cc2ccccc2)[C@H]2CNC[C@@H]2N(Cc2ccccc2)S(=O)(=O)c2ccc([N+](=O)[O-])cc2)cc1
The Ki of the first is 22-fold higher: 172 µM for the first, 7.9 µM for the second.
